Results as given in the NIST ThermoML archive (doi:10.1016/j.jct.2018.05.004).

Experiment: mn = molality of the nth substance listed, in mol/kg
Conditions: 100 kPa, Liquid; for speed of sound: Frequency=3 MHz, Single path-length method; for mass density: Vibrating tube method

OC[C@H]1O[C@@](CO)(O[C@H]2O[C@H](CO)[C@@H](O)[C@H](O)[C@H]2O)[C@@H](O)[C@@H]1O [D-sucrose] + O
Conditions | mass density, 288.15 K [kg/m3] | mass density, 298.15 K [kg/m3] | mass density, 308.15 K [kg/m3] | mass density, 318.15 K [kg/m3] | speed of sound, 288.15 K [m/s] | speed of sound, 298.15 K [m/s] | speed of sound, 308.15 K [m/s] | speed of sound, 318.15 K [m/s]
m1 = 0.1002 | 1012.01 | 1009.81 | 1006.68 | 1002.77 | 1476.3 | 1506 | 1528.2 | 1544
m1 = 0.2007 | 1024.37 | 1022.04 | 1018.8 | 1014.82 | 1486.2 | 1515 | 1536.5 | 1552.6
m1 = 0.3011 | 1036.19 | 1033.73 | 1030.39 | 1026.34 | 1496 | 1524 | 1544.7 | 1560.1
m1 = 0.4034 | 1047.72 | 1045.13 | 1041.69 | 1037.58 | 1506 | 1533.2 | 1553.1 | 1567.7
m1 = 0.4996 | 1058.12 | 1055.43 | 1051.89 | 1047.73 | 1515.3 | 1541.7 | 1561 | 1576
m1 = 0.6018 | 1068.73 | 1065.92 | 1062.29 | 1058.07 | 1525.2 | 1550.6 | 1569.3 | 1584.2
m1 = 0.7022 | 1078.71 | 1075.81 | 1072.09 | 1067.82 | 1534.9 | 1559.3 | 1577.2 | 1592
m1 = 0.7978 | 1087.87 | 1084.86 | 1081.07 | 1076.72 | 1543.9 | 1567.4 | 1584.8 | 1599.6
m1 = 0.8955 | 1096.86 | 1093.77 | 1089.9 | 1085.49 | 1552.9 | 1575.6 | 1592.3 | 1606.7
m1 = 0.9969 | 1105.83 | 1102.65 | 1098.71 | 1094.23 | 1562.2 | 1583.8 | 1600.1 | 1614.4

O=C([O-])CC(O)(CC(=O)[O-])C(=O)[O-].[NH4+].[NH4+].[NH4+] [ammonium 2-hydroxypropane-1,2,3-tricarboxylate] + O
Conditions | mass density, 288.15 K [kg/m3] | mass density, 298.15 K [kg/m3] | mass density, 308.15 K [kg/m3] | mass density, 318.15 K [kg/m3] | speed of sound, 288.15 K [m/s] | speed of sound, 298.15 K [m/s] | speed of sound, 308.15 K [m/s] | speed of sound, 318.15 K [m/s]
m1 = 0.2 | 1021.37 | 1019 | 1015.71 | 1011.75 | 1503.1 | 1532 | 1553.5 | 1569
m1 = 0.4 | 1043.45 | 1040.15 | 1037.34 | 1033.31 | 1540.4 | 1567.3 | 1587.8 | 1602.3
m1 = 0.6 | 1063.76 | 1060.41 | 1057.21 | 1052.93 | 1578.7 | 1603.6 | 1621.9 | 1635.4

O=C([O-])CC(O)(CC(=O)[O-])C(=O)[O-].[Li+].[Li+].[Li+] [trilithium citrate] + O
Conditions | mass density, 288.15 K [kg/m3] | mass density, 298.15 K [kg/m3] | mass density, 308.15 K [kg/m3] | mass density, 318.15 K [kg/m3] | speed of sound, 288.15 K [m/s] | speed of sound, 298.15 K [m/s] | speed of sound, 308.15 K [m/s] | speed of sound, 318.15 K [m/s]
m1 = 0.2 | 1027.21 | 1025.32 | 1021.67 | 1017.79 | 1509.2 | 1535.8 | 1556 | 1570.2
m1 = 0.4 | 1052.75 | 1050.41 | 1046.92 | 1042.96 | 1548 | 1572.6 | 1590.3 | 1602.4
m1 = 0.6 | 1078.28 | 1075.38 | 1071.84 | 1068 | 1589.2 | 1610.5 | 1625.9 | 1635.7
